According to ChEMBL document CHEMBL1201862, “PubChem BioAssay data set” (2004):
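Protocol summary: plate cells (96-well), add compound at 5 concentrations, incubate 48 h, interpolate endpoints linearly. GI50: concentration for 50% inhibition of growth.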 The source made the active and inactive calls. Cut-off read from the data, not from the text of the source: active = GI50 up to about 1.1 µM and inactive = higher.

Columns and labels:
Test in all cases: growth of human tumour cells (NCI), 48 h
[1] = system: ACHN
[2] = system: DU-145
[3] = system: EKVX
[4] = system: K562
[5] = system: LOX IMVI
[6] = system: MCF7
[7] = system: MDA-MB-231
[8] = system: MOLT-4
[9] = system: NCI/ADR-RES
[10] = system: OVCAR-4
[11] = system: OVCAR-8
[12] = system: RXF 393
[13] = system: SK-MEL-28
[14] = system: SK-OV-3
[15] = system: SN12C
[16] = system: SR
[17] = system: T47D
[18] = system: U-251
[19] = system: UACC-257
[20] = system: SNB-75

Measured: GI50

CCCSc1cc(Cl)c(C)cc1S(=O)(=O)n1ccnc1OCCCN(C)C
inactive: [1] > 100 µM | [2] > 100 µM | [3] > 100 µM | [4] > 100 µM | [5] > 100 µM | [6] > 100 µM | [7] > 100 µM | [8] > 100 µM | [9] > 100 µM | [10] > 100 µM | [11] > 100 µM | [12] > 100 µM | [13] > 100 µM | [14] > 100 µM | [15] > 100 µM | [16] > 100 µM | [17] > 100 µM | [18] > 100 µM | [19] > 100 µM

CC1CC(=O)N2CCCNC2=C1C#N (stereo not given)
inactive: [2] > 100 µM | [3] > 100 µM | [4] > 100 µM | [5] > 100 µM | [6] > 100 µM | [7] > 100 µM | [8] > 100 µM | [9] > 100 µM | [10] > 100 µM | [11] > 100 µM | [12] > 100 µM | [13] > 100 µM | [14] > 100 µM | [15] > 100 µM | [20] > 100 µM | [16] > 100 µM | [17] > 100 µM | [18] > 100 µM | [19] > 100 µM

C=C(C[C@@H](O)[C@H](C)NC(=O)OCc1ccccc1)C(=O)OC(C)(C)C
inactive: [1] > 100 µM | [2] 45.7 µM | [3] 76.6 µM | [4] 35.9 µM | [5] 53.8 µM | [6] 61.7 µM | [7] > 100 µM | [8] 46.2 µM | [9] 66.2 µM | [10] 47.5 µM | [11] 66.8 µM | [13] > 100 µM | [14] > 100 µM | [15] > 100 µM | [20] 79.8 µM | [16] 29.6 µM | [17] 13.1 µM | [18] > 100 µM | [19] 32.1 µM

N#Cc1c(C#N)c(-c2ccccc2)n(Cc2ccccc2)c1N
inactive: [1] > 100 µM | [2] > 100 µM | [3] > 100 µM | [4] > 100 µM | [5] > 100 µM | [6] > 100 µM | [7] 26.9 µM | [8] > 100 µM | [9] > 100 µM | [10] > 100 µM | [11] 28.4 µM | [12] 48.6 µM | [14] > 100 µM | [15] > 100 µM | [20] 14.4 µM | [16] > 100 µM | [17] > 100 µM | [18] 80.5 µM | [19] > 100 µM

CCN(CC)CCOC(NC(C)=O)(c1ccccc1)c1ccccc1
inactive: [1] > 100 µM | [2] > 100 µM | [3] > 100 µM | [6] > 100 µM | [7] > 100 µM | [8] > 100 µM | [9] > 100 µM | [10] > 100 µM | [11] > 100 µM | [12] > 100 µM | [13] > 100 µM | [14] > 100 µM | [15] > 100 µM | [20] > 100 µM | [16] > 100 µM | [17] > 100 µM | [18] > 100 µM | [19] > 100 µM

CC(=O)Nc1c(S(=O)(=O)c2ccccc2)c(C)c(C)n1CCN(C)C
inactive: [1] > 100 µM | [2] > 100 µM | [3] > 100 µM | [4] > 100 µM | [6] > 100 µM | [7] > 100 µM | [8] > 100 µM | [9] > 100 µM | [10] > 100 µM | [11] > 100 µM | [12] > 100 µM | [13] > 100 µM | [14] > 100 µM | [15] > 100 µM | [20] > 100 µM | [16] > 100 µM | [17] > 100 µM | [18] > 100 µM | [19] > 100 µM

COC(=O)c1cc(/C=C/C(=O)Cc2ccccc2)cn1S(=O)(=O)c1ccccc1
inactive: [1] > 100 µM | [2] > 100 µM | [3] > 100 µM | [4] > 100 µM | [5] > 100 µM | [6] > 100 µM | [7] > 100 µM | [8] > 100 µM | [9] > 100 µM | [10] > 100 µM | [11] > 100 µM | [12] > 100 µM | [14] > 100 µM | [15] > 100 µM | [20] > 100 µM | [16] > 100 µM | [17] > 100 µM | [19] > 100 µM

CC(=O)OC[C@@]12Cc3ccc(C)c(O)c3[C@]1(C)[C@@H](OC(C)=O)[C@]1(O)[C@H]([C@@H](OC(=O)c3ccccc3)[C@@H](C)[C@H]1OC(C)=O)[C@H]2OC(C)=O
inactive: [1] > 50 µM | [2] > 50 µM | [3] > 50 µM | [4] > 50 µM | [5] > 50 µM | [6] > 50 µM | [7] > 50 µM | [8] > 50 µM | [9] > 50 µM | [10] > 50 µM | [11] > 50 µM | [12] > 50 µM | [14] > 50 µM | [15] > 50 µM | [20] 16.4 µM | [16] > 50 µM | [17] > 50 µM | [18] > 50 µM | [19] > 50 µM

Nc1nc(Cl)cc(NC2(CO)CCC2)n1
inactive: [1] > 100 µM | [2] > 100 µM | [3] > 100 µM | [4] > 100 µM | [5] > 100 µM | [6] > 100 µM | [7] > 100 µM | [8] > 100 µM | [9] > 100 µM | [10] > 100 µM | [11] > 100 µM | [12] > 100 µM | [13] > 100 µM | [15] > 100 µM | [20] > 100 µM | [16] > 100 µM | [17] > 100 µM | [18] > 100 µM | [19] > 100 µM

COc1ccc(/C=C2\Sc3nnc(CNc4ccc(Cl)cc4)n3N=C2c2cc(F)c(Cl)cc2Cl)cc1OC
inactive: [1] 48.4 µM | [2] 71.6 µM | [3] > 100 µM | [4] 19 µM | [5] 29.3 µM | [6] 23.9 µM | [7] > 100 µM | [8] 10.9 µM | [9] 17.9 µM | [10] 22.5 µM | [11] 24.7 µM | [12] 15.8 µM | [13] > 100 µM | [14] > 100 µM | [16] 21 µM | [17] 44.3 µM | [18] > 100 µM | [19] > 100 µM

CC1(C)C=Cc2c(cc3oc4ccc5c(c4c(=O)c3c2O)C=CC(C)(C)O5)O1
inactive: [1] > 100 µM | [2] > 100 µM | [3] > 100 µM | [5] > 100 µM | [6] > 100 µM | [7] > 100 µM | [8] > 100 µM | [9] > 100 µM | [10] > 100 µM | [11] > 100 µM | [12] > 100 µM | [13] > 100 µM | [14] > 100 µM | [15] > 100 µM | [16] 75.3 µM | [17] > 100 µM | [18] > 100 µM | [19] > 100 µM
